Patent US6689609B1, “Enhancing germination of plant somatic embryos by priming” (Cellfor Inc., priority 1999, dated 2004)

How the values were obtained:
[1] = system: interior spruce somatic embryos; experiment: Plant growth regulators added to nutripriming solutions: ex vitro germination and rooting of interior spruce somatic embryos; type: in vivo, Picea glauca (Moench) Voss x P. engelmannii Parry ex Engelm.
From the text: Mature somatic embryos of interior spruce (Picea glauca (Moench) Voss x P. engelmannii Parry ex Engelm.) genotypes 4-2809, 23-2672, and I-1026 were desiccated with the HRHT treatment. Genotype I-1026 was further desiccated at 85% RH for three days, then stored at −20C. Prior to nutripriming, genotype I-1026 was imbibed with a matripriming step which consisted of placing the desiccated embryos onto a screen, and then placing the screen on the surface of an agar substrate gelled with 3% phytogel for 18 hrs. After this imbibition step was completed for genotype I-1026, all three genotypes were nutriprimed for 84 hr in 3% w/v sucrose m24GMD nutripriming solutions amended with the plant growth regulators described in Table 8.1.
After the nutripriming step was completed, the nutriprimed somatic embryos were sown ex vitro into 400-cavity styrofoam miniplug trays filled with peat bound by a polymer (Grow-Tech Inc., San Bautista, Calif.). After sowing, the trays were placed into a non-sterile high-humidity (≧95% RH) germination chamber for one week. In both studies, immediately after the trays containing ex vitro sown nutriprimed embryos were placed into the non-sterile high-humidity germination chamber, they were misted with m24GMD solution containing 3% w/v sucrose until the surfaces of the non-sterile growing substrates were well-wetted, and subsequently at daily intervals for a period of 7 days. After the initial 7-day period in the non-sterile high-humidity germination environment, the trays were moved to a non-sterile misting chamber (RH ranged between 75-90%) for two more weeks of growth under an 18-hour photoperiod of […] PAR with day-night temperatures of 18-23° C. Daily applications of the m24GMD nutrient solution containing 3% w/v sucrose were misted onto the germinants through to the end of the two-week period in the misting chamber. Aseptic techniques or conditions were not used for application of the nutrient solutions, or for the germination and growing environments during the 3-week culture period.
At the end of the three-week germination period, all germinated embryos and seedlings were counted and examined for root initiation. Germination and rooting percentages were calculated based on total number of embryos sown in each replicate. The rooting percentage measures the plant conversion rate since the survived germinants can have perfectly elongated and formed shoot, but without root initiation.

[2] = system: interior spruce somatic embryos; experiment: Plant growth regulators added to horticultural growing substrate after sowing: ex vitro germination and rooting of nutriprimed interior spruce somatic embryos; type: in vivo, Picea glauca (Moench) Voss x P. engelmannii Parry ex Engelm.; details: primed
From the text: The second study assessing the effects of plant growth regulators on germination performance of nutriprimed somatic embryos involved additions of plant growth regulators to the horticultural growing substrates after the nutriprimed somatic embryos were sown ex vitro. In this study, somatic embryos from interior spruce genotypes 4-2809, 23-2672, and I-1026 were desiccated and stored as described for the first growth regulator study. Prior to nutripriming, genotype I-1026 was imbibed with a matripriming step which consisted of placing the desiccated embryos onto a screen, and then placing the screen on the surface of an agar substrate gelled with 3% phytogel foe 18 hrs. After this imbibition step was completed for genotype I-1026, all three genotypes were nutriprimed for 84 hr in 3% w/v sucrose m24GMD nutripriming solutions and then sown ex vitro into 400-cavity styrofoam miniplug trays filled with peat bound by a polymer (Grow-Tech Inc., San Bautista, Calif.). After sowing was completed, the nutriprimed embryo received exogenous applications of one of the treatments described in Table 8.3.
After the exogenous application of the plant growth regulator treatments, the blocks were placed onto a non-sterile high-humidity (≧95% RH) germination chamber for one week. Immediately after the trays containing ex vitro sown nutriprimed embryos were placed into the non-sterile high-humidity germination chamber, they were misted with m24GMD solution containing 3% w/v sucrose until the surfaces of the non-sterile growing substrates were well-wetted, and then at daily intervals for a period of 7 days. After the initial 7-day period in the non-sterile high-humidity germination environment, the trays were moved to a non-sterile misting chamber (RH ranged between 75-90%) for two more weeks of growth under an 18-hour photoperiod of […] PAR with day-night temperatures of 18-23° C. Daily applications of the m24GMD nutrient solution containing 3% w/v sucrose were misted onto the germinants through to the end of the two-week period in the misting chamber. Aseptic techniques or conditions were not used for application of the nutrient solutions, nor for the germination and growing environments during the 3-week culture period.
At the end of the three-week germination period, all survived germinants were counted and examined for root initiation. Germination and rooting percentages were calculated based on total number of embryos sown in each replicate.

[3] = genotype 4-2809, HRHT, IBA 0.1 μM in priming solution
[4] = genotype 4-2809, HRHT, priming solution with no regulator or IBA 0.05 μM alone, + BA 0.01 μM, + BA 0.01 μM + GA4/7 0.01 μM, or + GA4/7 0.05 μM
[5] = genotype 23-2672, HRHT, IBA 0.1 μM in priming solution
[6] = genotype 23-2672, HRHT, priming solution with no regulator or IBA 0.05 μM alone, + BA 0.01 μM, + BA 0.01 μM + GA4/7 0.01 μM, or + GA4/7 0.05 μM
[7] = genotype I-1026, 85% & frozen, IBA 0.1 μM in priming solution
[8] = genotype I-1026, 85% & frozen, priming solution with no regulator or IBA 0.05 μM alone, + BA 0.01 μM, + BA 0.01 μM + GA4/7 0.01 μM, or + GA4/7 0.05 μM
[9] = genotype 4-2809, HRHT, IBA 0.2 μM
[10] = genotype 4-2809, HRHT, substrate given no regulator or IBA 0.1 μM alone, + BA 0.02 μM, + BA 0.02 μM + GA4/7 0.2 μM (so in the source), or + GA4/7 0.1 μM
[11] = genotype 23-2672, HRHT, IBA 0.2 μM
[12] = genotype 23-2672, HRHT, substrate given no regulator or IBA 0.1 μM alone, + BA 0.02 μM, + BA 0.02 μM + GA4/7 0.2 μM (so in the source), or + GA4/7 0.1 μM
[13] = genotype I-1026, 85% & frozen, IBA 0.2 μM
[14] = genotype I-1026, 85% & frozen, substrate given no regulator or IBA 0.1 μM alone, + BA 0.02 μM, + BA 0.02 μM + GA4/7 0.2 μM (so in the source), or + GA4/7 0.1 μM

`O=C(O)CCCc1c[nH]c2ccccc12` [IBA, indole-butyric-acid] was tested, and the Germination % [1, 3] was 68.8 ± 5.2%, the Rooting % [1, 3] was 51.3 ± 4.3% and the Germination % [1, 4] was 92.5 ± 6.0%. The Rooting % [1, 4] was 82.5 ± 6.0%, the Germination % [1, 5] was 82.5 ± 9.7% and the Rooting % [1, 5] was 72.5 ± 6.3%. It also gave a Germination % [1, 6] of 90.0 ± 3.5%, a Rooting % [1, 6] of 71.3 ± 6.6% and a Germination % [1, 7] of 88.8 ± 6.6%. The Rooting % [1, 7] was 58.8 ± 5.9%, the Germination % [1, 8] was 93.8 ± 2.4% and the Rooting % [1, 8] was 66.3 ± 4.7%. It also gave a Germination % [2, 9] of 97.5 ± 1.4%, a Rooting % [2, 9] of 78.8 ± 7.5% and a Germination % [2, 10] of 92.5 ± 7.5%. The Rooting % [2, 10] was 75.0 ± 10.2%, the Germination % [2, 11] was 72.5 ± 10.9% and the Rooting % [2, 11] was 67.5 ± 10.1%. It also gave a Germination % [2, 12] of 72.5 ± 11. %, a Rooting % [2, 12] of 61.3 ± 13.4% and a Germination % [2, 13] of 80.0 ± 6.8%. The Rooting % [2, 13] was 65.0 ± 5.4%, the Germination % [2, 14] was 91.3 ± 5.5% and the Rooting % [2, 14] was 66.3 ± 3.7%.
